Like-named read-outs stand apart in the source and are kept apart here.
Columns and labels:
C. elegans embryos [1] = assay: Viability of nematodes in carbon monoxide based atmospheres; type: in vivo; conditions: for viability (survival) to adulthood: 0.25 kPa O2/CO
Description: To achieve specific atmospheric conditions the following apparatus was used: a glass syringe barrel having a tip with a locking device such as a LUER-LOK with the large opening of the barrel sealed with a custom-machined steel and rubber fitting to make an airtight seal was locked to via locking device to the inlet port of an environmental chamber having an inlet and an outlet port each fitted with a locking devices such as a LUER-LOK fitting. A defined gas was humidified and provided to the environmental chamber by first venting the gas from a compressed tank (Byrne Specialty Gas, Seattle, Wash.) through a gas washing bottle (500 ml Kimex) filled with double distilled water. The gas washing bottle was connected to the environmental chamber past a gas-flow meter. A gas flow meter was used to provide a regulated 70 cc/min flow through the environmental chamber throughout the 24 hr incubation.
(§1) To test whether induced, reversible stasis could be achieved in C. elegans nematodes, 2-cell C. elegans embryos, L3 larvae or adult nematodes were collected and exposed to either an environment of effectively 100% CO, an environment of 100% N2, an environment comprising 500 ppm oxygen balanced with carbon monoxide, or to environments comprising 100, 500 or 1000 ppm oxygen balanced with nitrogen at room temperature. Nematodes were visualized using differential interference contrast microscopy (also known as Nomarski optics). Images were collected and analyzed using NIH image and Adobe Photoshop 5.5. Embryos are approximately 50 μm in length.
Environmental chambers and apparatuses. Oxygen deprivation experiments were carried out using a custom atmospheric chamber designed by W. Van Voorhies (Van Voorhies et al., 2000). The chamber is a 30 mL glass syringe (Fisher #14-825-10B) fitted with a custom steel stopper that is lined with two viton o-rings to ensure a tight seal. The stopper is bored through and has a steel lure lock on the exterior face so that a hose carrying compressed gas can be attached. A defined gas mixture is delivered to the chamber at a constant pressure and flow rate from compressed tanks by passing first through a rotometer (Aalborg, flow-tube number 032-41ST) or mass flow controller (Sierra Instruments #810) to monitor flow rate and then through a 500 ml gas washing bottle (Fisher #K28220-5001) containing 250 ml water to hydrate the gas. ¼” OD nylon (Cole-Parmer #P-06489-06) or FEP (Cole-Parmer #A-06450-05) tubing was used and connections between tubing and the regulators and between the tubing and the rotometers were made with brass John-Guest-type fittings (Byrne Gas). All other connections were made with either microflow quick-connect fittings (Cole-Parmer #A-06363-57, #A-06363-52) or standard lure fittings (Cole-Parmer #A-06359-37, #A-06359-17).
Viability of nematodes in hypoxia. […] Log-phase, adult C. elegans were picked into a drop of sterile water containing 100 μg/ml ampicillin, 15 μg/ml tetracycline and 200 μg/ml streptomycin on a glass plate. Adults were chopped with a razor blade and 2-cell embryos were picked using a mouth pipet. 30-60 2-cell embryos were transferred to a small glass boat (custom made to fit atmospheric chambers, Avalon Glass Works, Seattle Wash.) filled with 3 ml of 1% agarose in M9. Boats were then placed into a humid chamber for 2 hours to allow the embryos to age and then placed into the environmental chamber. The environmental chambers were continuously perfused at room temperature with either pure N2 (grade 4.5), 100 ppm O2/N2, 500 ppm O2/N2, 1000 ppm O2/N2, or 5000 ppm O2/N2 at 70 cc/min for 24 hrs. Following exposure, agarose chunks containing the embryos were cut out of the boat and placed with embryos facing up onto a medium-sized NGM plate seeded with E. coli (OP50). Embryos were scored for hatching 24 hours after exposure and hatched L1's were transferred to the surface of the NGM plate and followed to adulthood. Animals that could not be accounted for were dropped from the total. […]

human keratinocytes = assay: Preservation of human skin in carbon monoxide: keratinocyte growth and colony formation; type: cell-based
Protocol: Three human foreskins were obtained for this purpose. The foreskin tissue was preserved in keratinocyte growth medium (KGM) containing insulin, EGF (0.1 ng/ml), hydrocortisone ([…]) and bovine pituitary extract (approx. 50 micrograms/ml of protein). Foreskins were rinsed in PBS, and excess fatty tissue was removed. Each foreskin sample was divided into 2 equal pieces. Each piece was placed into a separate container containing a solution of PBS with 24 mg/ml of Dispase II (from Bacillus Polymyxa EC 3.4.24.4:Roche Diagnostics Corp., Indianapolis, Ind.). One container (containing a foreskin piece in PBS with Dispase II) was kept in a humid chamber in a fume hood. The other container (with the other half of the foreskin in PBS with Dispase II) was placed in the same fume hood in an environmental chamber perfused with humidified 100% CO. Both samples were maintained at room temperature for 24 hrs. Methods used to establish defined atmospheric conditions were identical to those used in Example 1.
Following the 24 hr exposure to normoxia or 100% CO, keratinocytes were isolated from the foreskins according to the method described by Boyce et al. (1983; 1985; each of which is incorporated herein by reference in its entirety). Briefly, the epidermis from each foreskin sample was removed to a fresh dish containing PBS. The epidermis was minced and homogenized prior to incubation in 3 ml of 0.05% Trypsin, 1 mM EDTA for 5 minutes, at room temperature, to separate basal cells from the epidermis. After incubation, 6 ml of 400 μg/ml (micrograms per ml) Soybean Trypsin Inhibitor, 1 mg/ml BSA was added and the samples were centrifuged at 900 RPM. The supernatant from each sample was discarded and the sample pellets were resuspended in 10 ml of KGM. Each sample was split into two 10 cm plates each of which contained 5 ml KGM and 100 μl of HEPES pH 7.3 (N-2-hydroxyethylpiperazine-N′-2-ethane sulfonic acid). The plates were incubated in a 37° C. incubator perfused with 95% room air, 5% carbon dioxide for five days.
Cells were inspected visually using an inverted phase contrast microscope. […] Quantitation of the number of viable keratinocytes as judged by colony formation was quantified for two of the three foreskins.

C. elegans embryos [2] = assay: Cell biological analysis: arrest of embryogenesis (suspended animation) in carbon monoxide-based atmospheres; type: in vivo
Description: as §1
Cell biological analysis. To determine the extent of developmental progression in nitrogen-based atmospheres (Table 2), 2-cell embryos were exposed to various degrees of hypoxia as described above and were either immediately photographed, or photographed following a 12 hr recovery period in a humid chamber. To determine whether embryos arrested in carbon monoxide-based atmospheres, 2-cell embryos were aged in room air for two hours and were either photographed immediately or put into 100% carbon monoxide or 0.05 kPa O2/CO for 24 hours and photographed immediately following the exposure. In all cases, DIC microscopy was done by placing embryos under a cover slip on a thin 1% agarose pad and viewing on a Zeiss axioscope. Photographs were taken using RS Image and Adobe Photoshop software.

humans = conditions: cited from earlier work

## [C-]#[O+] [carbon monoxide]
C. elegans embryos [1]; N2 (wild-type) embryos, 24 hrs
  viability (survival) to adulthood: 78.7%
C. elegans embryos [1]; N2 (wild-type) embryos, 24 hrs, listed as CO
  viability (survival) to adulthood: 78.7% ± 21.9
C. elegans embryos [1]; embryos, 0.05 kPa O2 balanced with carbon monoxide, 24 hours
  viability to adulthood: 96.2%
C. elegans embryos [1]; embryos, 101 kPa CO (100% CO), 24 hrs
  survival to adulthood: 81.5%
C. elegans embryos [1]; hif-1(ia04) embryos, 24 hrs
  viability (survival) to adulthood: 84.0%
C. elegans embryos [1]; hif-1(ia04) embryos, 24 hrs, listed as CO
  viability (survival) to adulthood: 83.9% ± 13.8
C. elegans embryos [1]; nematodes, 100% carbon monoxide, room temperature, 24 hr
  lethality: not lethal
C. elegans embryos [1]; nematodes, 500 ppm oxygen balanced with carbon monoxide
  suspended animation and survival: entered into suspended animation and survived
C. elegans embryos [1]; wild-type embryos, 24 hours, 0.05 kPa O2/CO versus 0.05 kPa O2/N2
  protection against hypoxia (FIG. 3): protects against hypoxia
Human keratinocytes; Foreskin 1, 100% CO 24 hrs
  Total colonies: 542 colonies (many of which were very
Human keratinocytes; Foreskin 2, 100% CO 24 hrs
  Total colonies: 780 colonies (many of which were very
Human keratinocytes; exposure to 100% CO
  survival of human keratinocytes (FIG. 1): survive
Human keratinocytes; human skin, 100% CO, after 24 hrs
  survival of skin cells in CO relative to room air: 100 fold
Human keratinocytes; three foreskins, 24 hr 100% CO at room temperature, then five days culture
  growth of keratinocyte populations (visual inspection): significant growth
C. elegans embryos [2]; embryos, 0.05 kPa O2 balanced with carbon monoxide
  embryogenesis during exposure: arrested embryogenesis
C. elegans embryos [2]; embryos, 101 kPa CO
  progression through embryogenesis during exposure: did not progress through embryogenesis
C. elegans embryos [2]; nematodes, 100% carbon monoxide
  induction of suspended animation: induced reversible suspended animation
C. elegans embryos [2]; wild-type and hif-1(ia04) embryos, 0.25 kPa O2 balanced with carbon monoxide
  suspended animation: entered into suspended animation
humans; 50 parts per million (ppm)
  symptoms: no symptoms
humans; 200 ppm, within two-three hours
  symptoms: slight headache
humans; 400 ppm, within one to two hours
  symptoms: frontal headache
humans; 800 ppm
  symptoms: dizziness, nausea, and/or convulsions within 45 minutes, and render the subject insensible within two hours
humans; around 1000 ppm, exposure for more than around 1-2 minutes, an organism
  lethality: can expire

— patent publication US20050170019A1, “Methods, compositions and devices for inducing stasis in cells” (Fred Hutchinson Cancer Research Center, priority 2003, published 2005)
